For experiment [1], the target named is WRN (BV08), human Werner helicase (Uniprot Q14191, amino acids 517-1235 with L1074F point mutation) (Homo sapiens (Human), UniProt Q14191, L1074F). Briefly: WRN (BV08) ADP-Glo assay. The note with it: class symbols A-E, read-out: ADP-Glo_hWRN_IC50. In kind it is biochemical.
In experiment [2] the test system is p21 induction in HCT116 cells. Nature of the experiment: p21 induction in HCT116 cells. The format is cell-based. The settings on record: HCT116 cells, 24 h compound incubation, read-out: P21_EC50. The method, boiled down: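 EC50 from non-linear curve fit of p21 immunofluorescence (800 nm), with GAPDH (700 nm) read alongside. DMSO and a reference WRN inhibitor served as low and high controls. Cells (2,000/well) got 11 compound concentrations in duplicate for 24 h at 37 °C.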

Read-outs that look alike come from different tables or passages of the source.

WRN (BV08), human Werner helicase (Uniprot Q14191, amino acids 517-1235 with L1074F point mutation), sequence (Q14191 other isoform, or with tags, fused parts or gaps L1074F (already in the parent)): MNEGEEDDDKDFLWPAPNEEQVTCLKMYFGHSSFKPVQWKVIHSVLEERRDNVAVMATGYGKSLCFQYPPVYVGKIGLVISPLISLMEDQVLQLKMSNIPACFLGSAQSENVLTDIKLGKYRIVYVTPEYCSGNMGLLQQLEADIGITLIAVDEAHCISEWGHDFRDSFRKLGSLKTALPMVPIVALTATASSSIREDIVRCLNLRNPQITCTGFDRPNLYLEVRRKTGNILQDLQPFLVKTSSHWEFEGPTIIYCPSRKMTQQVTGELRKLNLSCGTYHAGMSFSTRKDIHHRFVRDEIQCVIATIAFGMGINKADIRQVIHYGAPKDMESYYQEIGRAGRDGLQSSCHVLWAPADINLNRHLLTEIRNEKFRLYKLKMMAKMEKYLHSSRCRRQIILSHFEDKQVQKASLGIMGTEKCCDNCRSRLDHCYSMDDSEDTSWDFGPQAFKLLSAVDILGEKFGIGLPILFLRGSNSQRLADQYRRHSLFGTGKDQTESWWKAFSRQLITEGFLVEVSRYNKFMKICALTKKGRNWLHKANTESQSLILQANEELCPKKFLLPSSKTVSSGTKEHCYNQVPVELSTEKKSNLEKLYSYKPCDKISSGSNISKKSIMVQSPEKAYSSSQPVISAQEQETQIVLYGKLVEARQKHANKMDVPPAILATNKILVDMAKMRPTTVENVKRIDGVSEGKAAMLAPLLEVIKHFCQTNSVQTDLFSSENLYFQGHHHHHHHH

For the molecule `CCc1c(N2CCN(C(=O)c3ncnc(C)c3O)CC2)c(=O)c2nc(N3CC(C)(O)C3)cnc2n1CC(=O)Nc1ccc(C(F)(F)F)cc1Cl` [I-44, N-(2-chloro-4-(trifluoromethyl)phenyl)-2-(6-ethyl-2-(3-hydroxy-3-methylazetidin-1-yl)-7-(4-(5-hydroxy-6-methylpyrimidine-4-carbonyl)piperazin-1-yl)-8-oxopyrido[2,3-b]pyrazin-5(8H)-yl)acetamide], the IC50 in experiment [1] is 5 to 50 nM. Besides, the EC50 in experiment [2] (Homo sapiens, HCT-116, 24 h) is > 5000 nM.

Turning to `CCc1c(N2CCN(C(=O)c3cccc4ncoc34)[C@H]3CC[C@@H]32)c(=O)c2nc(N(C)C)cnc2n1CC(=O)Nc1ccc(C(F)(F)F)cc1Cl` [I-265, 2-{7-[(1S,6S)-5-(1,3-benzoxazole-7-carbonyl)-2,5-diazabicyclo[4.2.0]octan-2-yl]-2-(dimethylamino)-6-ethyl-8-oxo-5H,8H-pyrido[2,3-b]pyrazin-5-yl}-N-[2-chloro-4-(trifluoromethyl)phenyl]acetamide], in experiment [1], the IC50 lay within 5 to 50 nM. Further, the EC50 in experiment [2] (Homo sapiens, HCT-116, 24 h) fell in the range of 2000 to 5000 nM.

With `CCc1c(N2CCN(C(=O)c3ncnc(C)c3O)CC2)c(=O)c2nc(N(C)C)cnc2n1CC(=O)Nc1c(F)cc(C(F)(F)F)cc1F` [I-148, N-[2,6-difluoro-4-(trifluoromethyl)phenyl]-2-[2-(dimethylamino)-6-ethyl-7-[4-(5-hydroxy-6-methylpyrimidine-4-carbonyl)piperazin-1-yl]-8-oxo-5H,8H-pyrido[2,3-b]pyrazin-5-yl]acetamide], the IC50 in experiment [1] is 5 to 50 nM. Besides, the EC50 in experiment [2] (Homo sapiens, HCT-116, 24 h) is > 5000 nM.

Consider `CCc1c(N2CCN(C(=O)c3ncnc(C)c3O)[C@H]3CC[C@@H]32)c(=O)c2nc(NC)cnc2n1CC(=O)Nc1ccc(C(F)(F)F)cc1Cl` (single isomer, unassigned) [I-171, N-(2-chloro-4-(trifluoromethyl)phenyl)-2-(6-ethyl-7-(5-(5-hydroxy-6-methylpyrimidine-4-carbonyl)-2,5-diazabicyclo[4.2.0]octan-2-yl)-2-(methylamino)-8-oxopyrido[2,3-b]pyrazin-5(8H)-yl)acetamide], for which, in experiment [1], the IC50 is 50 to 100 nM. In addition, the EC50 in experiment [2] was > 5000 nM.

`CCc1c(N2CCN(C(=O)c3c(OC)ncc(C(F)F)c3O)[C@H]3CC[C@@H]32)c(=O)c2nc(N(C)C)cnc2n1CC(=O)Nc1ccc(C(F)(F)F)cc1Cl` [I-280, N-[2-chloro-4-(trifluoromethyl)phenyl]-2-{7-[(1S,6S)-5-[5-(difluoromethyl)-4-hydroxy-2-methoxypyridine-3-carbonyl]-2,5-diazabicyclo[4.2.0]octan-2-yl]-2-(dimethylamino)-6-ethyl-8-oxo-5H,8H-pyrido[2,3-b]pyrazin-5-yl}acetamide]: the IC50 in experiment [1] was in the range of 5 to 50 nM. For the same molecule, the EC50 in experiment [2] (Homo sapiens, HCT-116, 24 h) is > 5000 nM.

`CCc1c(N2CCN(C(=O)c3ncnc(C)c3O)C[C@@H]2CO)c(=O)c2nc(N(C)C)cnc2n1CC(=O)Nc1ccc(C(F)(F)F)cc1Cl` [I-244, N-[2-chloro-4-(trifluoromethyl)phenyl]-2-[2-(dimethylamino)-6-ethyl-7-[(2R)-4-(5-hydroxy-6-methylpyrimidine-4-carbonyl)-2-(hydroxymethyl)piperazin-1-yl]-8-oxo-5H,8H-pyrido[2,3-b]pyrazin-5-yl]acetamide]: the IC50 in experiment [1] lay in the range of 5 to 50 nM. The EC50 in experiment [2] (Homo sapiens, HCT-116, 24 h) was > 5000 nM.

On to `CCc1c(N2CCN(C(=O)c3ncnc(C)c3O)C(CO)C2)c(=O)c2nc(N(C)C)cnc2n1CC(=O)Nc1ccc(C(F)(F)F)cc1Cl` (centres unmarked) [I-178, N-[2-chloro-4-(trifluoromethyl)phenyl]-2-[2-(dimethylamino)-6-ethyl-7-[4-(5-hydroxy-6-methylpyrimidine-4-carbonyl)-3-(hydroxymethyl)piperazin-1-yl]-8-oxo-5H,8H-pyrido[2,3-b]pyrazin-5-yl]acetamide], for which the IC50 in experiment [1] lay within 5 to 50 nM. For the same molecule, in experiment [2] (Homo sapiens, HCT-116, 24 h), the EC50 was > 5000 nM.
